From patent publication US20260216346A1, “COMPOUND, NANOPARTICLES, MEDICINE, AND METHOD FOR PRODUCING NANOPARTICLES” (priority 2022, published 2026)
Entries after “also recorded” stand apart in the source; their conditions may differ.

Assays:
[1] = tested on: human breast cancer cell line MCF-7; assay: In vitro activity test: cell viability, Cell Counting Kit-8; assay type: cell-based; settings: nanoparticle dispersion, 0.04 to 10 µM (in terms of SN-38), 48 hours, FIG. 2
Procedure: A human breast cancer cell line MCF-7 was suspended in Dulbecco's modified Eagle's medium (DMEM) to which 10% fetal bovine serum (FBS) was added, thereby preparing a cell suspension of 2×10^5 cells/mL. The above-described cell suspension was seeded on a 96-well plate at 100 μL per well. The next day, the aqueous dispersion liquid of the nanoparticles of compound (1-1), the aqueous dispersion liquid of the nanoparticles of compound (2-1), or the aqueous dispersion liquid of the nanoparticles of SN-38, prepared as described above, was added to the MCF-7 cell culture solution so that the concentration thereof was 0.04 to 10 µM (in terms of SN-38). Thereafter, the cells were cultured at 37° C. and 5% CO2 for 48 hours. Thereafter, cell viability was measured by a colorimetric method using Cell Counting Kit-8 (manufactured by DOJINDO LABORATORIES.) and a microplate reader.

[2] = Drug release test in PBS under reduced dithiothreitol treatment (1); assay type: physicochemical; settings: nanoparticles 5 μM, PBS (-) pH 7.4 with 10 mM reduced DTT, 37° C., 1 hour or 24 hours, HPLC
Procedure: In the present test, the release of SN-38 from compound (1-1) and compound (2-1) in PBS to which reduced DTT was added was evaluated.
A solution was prepared by adding an aqueous dispersion liquid (5 μM, 500 μL) of nanoparticles of compound (1-1) or an aqueous dispersion liquid (5 μM, 500 μL) of nanoparticles of compound (2-1) to 500 µL of PBS (-) to which 10 mM of reduced dithiothreitol (DTT) had been added. “PBS (-)” used hereinafter is phosphate-buffered saline (pH: 7.4) containing NaCl (137 mM), KCl (2.7 mM), Na2HPO4 (10 mM), and KH2PO4 (1.76 mM).
The above-described reaction solution was incubated at 37° C. for 1 hour or 24 hours. 200 μL of the reaction solution after incubation was collected. The collected reaction solution was mixed with 800 μL of a 3% acetic acid solution of acetonitrile/methanol (1/1). The obtained mixed solution was analyzed by high-performance liquid chromatography (detection wavelength: 365 nm) as an analysis target sample.

[3] = Drug release test in PBS under reduced glutathione treatment; assay type: physicochemical; settings: nanoparticles 50 μM, PBS(−)/EtOH (7/3) pH 7.4 with 10 mM reduced GSH, 37° C., 1, 6, 24 or 48 hours, HPLC
Procedure: In the present test, the release of SN-38 from compound (1-1) and compounds (2-1) to (2-3) in PBS to which the reduced GSH was added was evaluated.
A reaction solution was prepared by adding the aqueous dispersion liquid (50 μM, 500 μL) of the nanoparticles of compound (1-1) or the aqueous dispersion liquid (50 μM, 500 μL) of the nanoparticles of any one of compounds (2-1) to (2-3) to 500 μL of PBS(−)/EtOH (7/3) (pH: 7.4) to which 10 mM of reduced glutathione (GSH) had been added.
The above-described reaction solution was incubated at 37° C. for 1 hour, 6 hours, 24 hours, or 48 hours. 200 μL of the reaction solution was collected after the incubation. The collected reaction solution was mixed with 800 μL of a 3% acetic acid solution of acetonitrile/methanol (1/1). The obtained mixed solution was analyzed by high-performance liquid chromatography (detection wavelength: 365 nm) as an analysis target sample.

[4] = Particle diameter of nanoparticles by SEM and DLS; assay type: physicochemical; settings: aqueous dispersion liquid, 0.05 mM
Procedure: 100 μL of a dimethyl sulfoxide solution of compound (1-1), prepared at 5 mM, was injected into 10 mL of water at room temperature using a syringe, and the mixture was stirred at 1,500 rpm for 2 seconds to obtain an aqueous dispersion liquid of nanoparticles. The final concentration of compound (1-1) in the aqueous dispersion liquid of the nanoparticles was 0.05 mM. It was confirmed by SEM and DLS that a particle diameter thereof was approximately 100 nm. […] A ClogP of compound (1-1) was 5.92.

With `CCc1c2c(nc3ccc(OC(=O)C(C)(C)CCSSCCC(C)(C)C(=O)Oc4ccc5nc6c(c(CC)c5c4)Cn4c-6cc5c(c4=O)COC(=O)[C@]5(O)CC)cc13)-c1cc3c(c(=O)n1C2)COC(=O)[C@]3(O)CC` [Compound (1-1)] the “cell viability of MCF-7” value [1] was “higher cell viability of MCF-7 compared with SN-38; also recorded: lower than that of compound (2-1)”, the “release of SN-38” value [2] was “SN-38 was released” and the “release of SN-38” value [3] was “compound (1-1) was reduced and SN-38 was increased with the passage of time”. For the same molecule, the “particle diameter of nanoparticles” value [4] was “approximately 100 nm”.
